Data published in PubChem BioAssay AID1963983 (Molecular Pharmacology Branch, DTP, NCI, 2024).

System: 186277-243-T-J2-PDC multi-cell spheroid viability
Assay: Anticancer human tumor 186277-243-T-J2-PDC patient-derived colon adenocarcinoma cell line growth inhibition [PI3K]
Settings: for IC50: curve of first compound; for viability, T/C: stronger effect = lower value
Summary of the method: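 Combination activity was assessed by viability in multicellular tumor spheroids carrying HUVEC and MSC components. Agents were tested with PI3K inhibitors from a Cmax-based top dose (or 10 microM) downward in half-log increments.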

[1] = second compound 0.00316 µM, first compound 0.0316 µM
[2] = second compound 0.00316 µM, first compound 0.1 µM
[3] = second compound 0.00316 µM, first compound 0.316 µM
[4] = second compound 0.00316 µM, first compound 1 µM
[5] = second compound 0.00316 µM, first compound 3.16 µM
[6] = second compound 0.00316 µM, first compound 10 µM
[7] = second compound 0.01 µM, first compound 0.0316 µM
[8] = second compound 0.01 µM, first compound 0.1 µM
[9] = second compound 0.01 µM, first compound 0.316 µM
[10] = second compound 0.01 µM, first compound 1 µM
[11] = second compound 0.01 µM, first compound 3.16 µM
[12] = second compound 0.01 µM, first compound 10 µM
[13] = second compound 0.0316 µM, first compound 0.0316 µM
[14] = second compound 0.0316 µM, first compound 0.1 µM
[15] = second compound 0.0316 µM, first compound 0.316 µM
[16] = second compound 0.0316 µM, first compound 1 µM
[17] = second compound 0.0316 µM, first compound 3.16 µM
[18] = second compound 0.0316 µM, first compound 10 µM
[19] = second compound 0.1 µM, first compound 0.0316 µM
[20] = second compound 0.1 µM, first compound 0.1 µM
[21] = second compound 0.1 µM, first compound 0.316 µM
[22] = second compound 0.1 µM, first compound 1 µM
[23] = second compound 0.1 µM, first compound 3.16 µM
[24] = second compound 0.1 µM, first compound 10 µM
[25] = second compound 0.316 µM, first compound 0.0316 µM
[26] = second compound 0.316 µM, first compound 0.1 µM
[27] = second compound 0.316 µM, first compound 0.316 µM
[28] = second compound 0.316 µM, first compound 1 µM
[29] = second compound 0.316 µM, first compound 3.16 µM
[30] = second compound 0.316 µM, first compound 10 µM
[31] = second compound 1 µM, first compound 0.0316 µM
[32] = second compound 1 µM, first compound 0.1 µM
[33] = second compound 1 µM, first compound 0.316 µM
[34] = second compound 1 µM, first compound 1 µM
[35] = second compound 1 µM, first compound 3.16 µM
[36] = second compound 1 µM, first compound 10 µM
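Also: spheroids exposed to compounds for seven days before viability reading.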
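For viability, T/C in this document: 100% = DMSO vehicle control viability.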

`CNC(=O)c1ccc(N2C(=S)N(c3ccc(C#N)c(C(F)(F)F)c3)C(=O)C2(C)C)cc1F` + CC(Nc1ccc2c(c1)OCCn1cc(N3C(=O)OCC3C(F)F)nc1-2)C(N)=O gave an IC50 (second compound 0.00316 µM) greater than 10000 nM, an IC50 (second compound 0.01 µM) greater than 10000 nM and an IC50 (second compound 0.0316 µM) greater than 10000 nM. For the same compound, the IC50 (second compound 0.1 µM) was greater than 10000 nM, the IC50 (second compound 0.316 µM) was greater than 10000 nM and the IC50 (second compound 1 µM) was 356 nM. It also gave a viability, T/C [1] of 109%, a viability, T/C [2] of 95.8% and a viability, T/C [3] of 90.8%. For the same compound, the viability, T/C [4] was 98%, the viability, T/C [5] was 109% and the viability, T/C [6] was 92.2%. For the same compound, the viability, T/C [7] was 98%, the viability, T/C [8] was 83.8% and the viability, T/C [9] was 99.3%. For the same compound, the viability, T/C [10] was 89.4%, the viability, T/C [11] was 93.7% and the viability, T/C [12] was 106%. It also gave a viability, T/C [13] of 110%, a viability, T/C [14] of 111% and a viability, T/C [15] of 94.1%. It also gave a viability, T/C [16] of 113%, a viability, T/C [17] of 113% and a viability, T/C [18] of 99.2%. The viability, T/C [19] was 105%, the viability, T/C [20] was 95.5% and the viability, T/C [21] was 100%. For the same compound, the viability, T/C [22] was 112%, the viability, T/C [23] was 90.2% and the viability, T/C [24] was 86.1%. The viability, T/C [25] was 86.6%, the viability, T/C [26] was 80% and the viability, T/C [27] was 68.5%. For the same compound, the viability, T/C [28] was 79.4%, the viability, T/C [29] was 73.7% and the viability, T/C [30] was 63.4%. For the same compound, the viability, T/C [31] was 58%, the viability, T/C [32] was 50.4% and the viability, T/C [33] was 45.1%. For the same compound, the viability, T/C [34] was 51.6%, the viability, T/C [35] was 49.6% and the viability, T/C [36] was 38.5%.
In the case of `Cn1nccc1Nc1nccc(-c2ccn(C(CO)c3ccc(Cl)c(F)c3)c(=O)c2)n1` (centres undefined) + COc1c(OCCCN2CCOCC2)ccc2c3n(c(=NC(=O)c4cnc(N)nc4)nc12)CCN3, the IC50 (second compound 0.00316 µM) is reported as 1080 nM, the IC50 (second compound 0.01 µM) is reported as 502 nM and the IC50 (second compound 0.0316 µM) is reported as less than 31.6 nM. It also gave an IC50 (second compound 0.1 µM) of less than 31.6 nM, an IC50 (second compound 0.316 µM) of less than 31.6 nM and an IC50 (second compound 1 µM) of less than 31.6 nM. The viability, T/C [1] was 109%, the viability, T/C [2] was 107% and the viability, T/C [3] was 89.2%. The viability, T/C [4] was 51.6%, the viability, T/C [5] was 24.3% and the viability, T/C [6] was 15.1%. For the same compound, the viability, T/C [7] was 86.3%, the viability, T/C [8] was 94.6% and the viability, T/C [9] was 57.7%. It also gave a viability, T/C [10] of 32.6%, a viability, T/C [11] of 14.7% and a viability, T/C [12] of 5.46%. It also gave a viability, T/C [13] of 47.2%, a viability, T/C [14] of 34.6% and a viability, T/C [15] of 18.4%. It also gave a viability, T/C [16] of 10.2%, a viability, T/C [17] of 6.79% and a viability, T/C [18] of 8.22%. It also gave a viability, T/C [19] of 9.72%, a viability, T/C [20] of 8.17% and a viability, T/C [21] of 6.57%. The viability, T/C [22] was 2.91%, the viability, T/C [23] was 2.2% and the viability, T/C [24] was 1.76%. For the same compound, the viability, T/C [25] was 3.78%, the viability, T/C [26] was 6.01% and the viability, T/C [27] was 1.78%. For the same compound, the viability, T/C [28] was 1.08%, the viability, T/C [29] was 1.43% and the viability, T/C [30] was 0.17%. It also gave a viability, T/C [31] of 2.33%, a viability, T/C [32] of 2.25% and a viability, T/C [33] of 0.33%. For the same compound, the viability, T/C [34] was 0.28%, the viability, T/C [35] was 0.15% and the viability, T/C [36] was 0.27%.
